The source of these data is article PMC6367500, “18β-glycyrrhetyl-3-O-sulfate would be a causative agent of licorice-induced pseudoaldosteronism” (Scientific Reports, 2019).

Details of data set [1]: method as in PMID 17331546. Conditions: guinea pigs; cited from earlier work.
The nature of data set [2]: Biliary excretion of GA metabolites in SD rats injected i.v. with GA. The format is in vivo. Conditions: GA 0.2 mg/kg i.v. The protocol:
Figure 3 Pharmacokinetic profiles of GL metabolites in SD rats (A,C,E,F) and EHBRs (B,D) after the administration of GA. GA (200 mg/kg) was administered orally to anesthetized SD rats or EHBRs, and plasma and urine were collected for 12 h (A–D). GA (0.2 mg/kg) was intravenously injected into anesthetized SD rats in which the biliary tract was cannulated. Then, bile samples were collected for 4 h (E). GA (0.2 mg/kg) was intravenously injected into conscious SD rats, and the feces was collected for 24 h. […] Since the determined lavels of 3MGA for B and D, 3 for C, GA for D, and all compounds except for 3 for E were relatively low; their magnified versions of their graphs are shown at the top or as an inside of each graph. The concentrations of GA metabolites were measured by LC-MS/MS, and data are plotted as mean ± S.E. (n = 4 for A–D,F; n = 3 for E).
GA, 3MGA, and compounds 1–3 were gradually excreted into the bile in SD rats injected i.v. with GA (0.2 mg/kg) and the accumulation of 3 in the bile at 4 h was 12-, 1.5 × 10^3-, 32-, and 15-fold those of GA, 3MGA, 1, and 2, respectively (Fig. 3E). […] GA, 3, and 2 were found in the feces of SD rats collected for 24 h after the i.v. injection of GA (0.2 mg/kg), while 3MGA and 1 were not found in the feces (Fig. 3F).
Female SD rats or EHBRs (9-week-old) were anesthetized by an intraperitoneal (i.p.) injection of urethane (1 g/kg) and their jugular veins were exposed. GA suspended in 0.5% CMC was then administered orally (200 mg/kg) to the unconscious rats, and blood samples were collected from the jugular vein; urine samples were collected using a metabolic cage at an appropriate time over a 12-h period. […] Feces were homogenized in phosphate-buffered saline (PBS; 0.15 M, pH 7.2), centrifuged (1.2 × 10^4 g, 10 min), and the supernatants were collected. After 1 week as a washout period, female SD rats were anesthetized by an i.p. injection of urethane (1 g/kg) and their biliary tract was cannulated. GA (0.2 mg/kg) was injected into the jugular vein, and the bile was collected every hour for 4 h. Aliquots (10 µl) of plasma, urine, homogenate of feces, or bile were mixed with 20 µl of subtilisin (0.91 U/ml) and incubated at 37 °C for 30 min, followed by the addition of 70 µl of astragaloside IV solution (1 µg/ml in ethanol containing 0.5% formic acid, used as internal standard), and kept at −20 °C for 30 min. […] The transitions (precursor to daughter) monitored and retention times were as follows: ESI(+) 743.4 to 567.5 m/z for compound 1 (5.5 min), ESI(−) 565.5 to 96.5 m/z for 2 (6.2 min), ESI(−) 549.5 to 96.5 m/z for 3 (8.1 min), ESI(+) 647.6 to 453.6 m/z for 3MGA (9.2 min), ESI(+) 471.3 to 91.0 m/z for GA (8.8 min), ESI(+) 823.5 to 453.6 m/z for GL (10.8 min), and ESI(+) 785.4 to 143.0 m/z for astragaloside IV (3.0 min). Linear regressions over the concentration range of 32 nM to 20 µM for each compound were examined using the peak-area ratio of the compounds to their internal standards and the least-squares method (r^2 > 0.98).

As for `CC1(C)[C@@H](O[C@@H]2O[C@H](C(=O)O)[C@@H](O)[C@H](O)[C@H]2O)CC[C@]2(C)[C@H]3C(=O)C=C4[C@@H]5C[C@@](C)(C(=O)O)CC[C@]5(C)CC[C@@]4(C)[C@]3(C)CC[C@@H]12` [3MGA, 3-monoglucuronyl glycyrrhetinic acid, reference compound], in data set [1], the “hypokalemia after i.v. injection” value was “caused hypokalemia”.
Turning to `CC1(C)[C@@H](OS(=O)(=O)O)CC[C@]2(C)[C@H]3C(=O)C=C4[C@@H]5C[C@@](C)(C(=O)O)CC[C@]5(C)CC[C@@]4(C)[C@]3(C)CC[C@@H]12` [compound 3, 18β-glycyrrhetyl-3-O-sulfate], in data set [2], the “rank among GA metabolites eliminated into bile” value is “major metabolite of GA eliminated into the bile”. Further, in data set [2] (biliary tract cannulated), the “accumulation in bile at 4 h relative to that of 1” value came out at 32 fold, the “accumulation in bile at 4 h relative to that of 2” value is 15 fold, the “accumulation in bile at 4 h relative to that of 3MGA” value is 1.5 × 10^3 fold and the “accumulation in bile at 4 h relative to that of GA” value is on record as 12 fold.
